Measured values published in PMC10415494, “Ga(III) pyridinecarboxylate complexes: potential analogues of the second generation of therapeutic Ga(III) complexes?” (Journal of Biological Inorganic Chemistry, 2023).
Read-outs that look alike come from different tables or passages of the source.

Assays:
[1] = system: cancer cell lines (A2780, MDA-MB-231, HCT116); set-up: method as in PMID 32354569; details: cited from earlier work
[2] = in vitro; details: human
Description: (§1) Cell culture the cell lines A2058 (human metastatic melanoma), BLM (human metastatic melanoma), HCT116 (human colorectal carcinoma), HeLa (human cervical adenocarcinoma), Jurkat (human leukaemic T cell lymphoma). […] Cells were maintained in standard conditions with an atmosphere containing 5% CO2 at 37 °C.
(§2) The antiproliferative activity of Ga(III) complexes GaPic, GaDpic, GaChel, GaCldpic, free ligands (HPic, H2Dpic, H2Chel, H2Cldpic) and cisplatin (cisPt) were evaluated by colorimetric microculture MTS (3-(4,5-dimethylthiazol-2-yl)-5-(3-carboxymethoxyphenyl)-2-(4-sulfophenyl)-2H tetrazolium) assay (Promega, Madison, WI, USA). Cancer and non-cancer cells were seeded at density 5 × 10^3 cells/well in 96-well polystyrene microplates. Twenty-four hours after cell seeding, different concentrations (1.0—100.0 µM) of the compounds were tested. After 72 h of incubation, 10 µL of MTS was added to each well. After an additional 2 h, cell proliferation was evaluated by measuring of absorbance at wavelength 490 nm using the automated Cytation™ 3 Cell Imaging Multi-Mode Reader (Biotek, Winooski, VT, USA). The absorbance of control wells was taken as 100%, and the results were expressed as a percent of untreated control. IC50 values were calculated from MTS analyses.

[3] = system: Candida parapsilosis (C. parapsilosis) ATCC 22019; experiment: Antimicrobial activity, macrodilution method (yeast, growth by A590); format: cell-based; details: Yeast, Sabouraud's growth medium, 37 °C, read-out: IC50 C. parapsilosis
Description: (§3) The antimicrobial activities of gallium(III) complexes GaPic, GaDpic, GaChel, GaCldpic, free ligands (HPic, H2Dpic, H2Chel, H2Cldpic) and positive controls (cefoxitin (C), ampicillin (A) and piperacillin (P)) were evaluated by macrodilution method using G^+ bacteria (Firmicutes) Staphylococcus aureus (S. aureus) CCM 3953 (Czech Collection of Microorganisms), G^− bacteria (γ-proteobacteria) Escherichia coli (E. coli) CCM 3988, Pseudomonas aeruginosa (P. aeruginosa) CCM 1959 (Czech Collection of Microorganisms) and the yeast Candida parapsilosis (C. parapsilosis) ATCC 22019 (American type culture collection). Cultures of bacteria (in Mueller–Hinton broth, MHB) and yeasts (in Sabouraud’s growth medium, SB) were incubated under shaking (250 rpm) at 37 °C. The growth of bacteria and yeasts was evaluated by measuring the absorbance of the growing cultures (A590) until the cultures reached the stationary growth phase. The effects of gallium(III) complexes on the growth of filamentous fungi Rhizopus oryzae (R. oryzae) CCM F-8284, Alternaria alternata (A. alternata) CCM F-128 and Microsporum gypseum (M. gypseum) CCM F-8342 (Czech Collection of Microorganisms) were observed by macrodilution method on solidified potato-dextrose growth medium (PDA). During culturing, the diameters of growing fungal colonies were measured at regular intervals. Briefly, the antimicrobial activity (bacteria and yeasts) gallium(III) complexes/ ligands were added to the microbial culture at the beginning of the cultivation-to the lag phase. Pure gallium(III) complexes/ligands were dissolved in DMSO. The final concentration of DMSO never exceeded 1.0 vol. % neither in control nor treated samples. Concentration of gallium(III) complexes used in experimental work for evaluation of antimicrobial activity was used in the range of 0.05–2 mM, for the free ligands in the range of 0.5–2.0 mM in all experiments. […] The IC50 values were evaluated from toxicity curves. All the obtained results of antimicrobial activity were compared to the activity of Ga(NO3)3.

[4] = system: Jurkat (human leukaemic T cell lymphoma); experiment: MTS antiproliferative assay
Description: as §1, §2

[5] = system: PaTu 8902 (human pancreatic adenocarcinoma); experiment: MTS antiproliferative assay
Description: as §1, §2

[6] = system: HCT116 (human colorectal carcinoma); experiment: MTS antiproliferative assay
Description: as §1, §2

[7] = system: HeLa (human cervical adenocarcinoma); experiment: MTS antiproliferative assay
Description: as §1, §2

[8] = system: MDA-MB-231 (human mammary gland adenocarcinoma); experiment: MTS antiproliferative assay
Description: as §1, §2

[9] = system: A2058 (human metastatic melanoma); experiment: MTS antiproliferative assay
Description: as §1, §2

[10] = system: Escherichia coli (E. coli) CCM 3988; experiment: Antimicrobial activity, macrodilution method (growth by A590); format: cell-based; details: Bacteria, MHB, 37 °C, DMSO max 1.0 vol. %, read-out: IC50 E. coli
Description: as §3

[11] = system: Staphylococcus aureus (S. aureus) CCM 3953; experiment: as above; format: cell-based; details: for IC50: Bacteria, MHB, 37 °C, DMSO max 1.0 vol. %, read-out: IC50 S. aureus
Description: as §3

[12] = system: Pseudomonas aeruginosa (P. aeruginosa) CCM 1959; experiment: as above; format: cell-based; details: for IC50: Bacteria, MHB, 37 °C, DMSO max 1.0 vol. %, read-out: IC50 P. aeruginosa
Description: as §3

[13] = system: any model microorganism; experiment: Antimicrobial activity, macrodilution method, all model microorganisms together; format: cell-based; details: free ligands, range 0.5–2.0 mM
Description: as §3, with “Cultures” for “The antimicrobial activities of gallium(III) complexes GaPic, GaDpic, GaChel, GaCldpic, free ligands (HPic, H2Dpic, H2Chel, H2Cldpic) and positive controls (cefoxitin (C), ampicillin (A) and piperacillin (P)) were evaluated by macrodilution method using G^+ bacteria (Firmicutes) Staphylococcus aureus (S. aureus) CCM 3953 (Czech Collection of Microorganisms), G^− bacteria (γ-proteobacteria) Escherichia coli (E. coli) CCM 3988, Pseudomonas aeruginosa (P. aeruginosa) CCM 1959 (Czech Collection of Microorganisms) and the yeast Candida parapsilosis (C. parapsilosis) ATCC 22019 (American type culture collection). Cultures”

[14] = system: Microsporum gypseum (M. gypseum) CCM F-8342; experiment: Growth of filamentous fungi, macrodilution method on solidified PDA (colony diameter); format: cell-based; details: Filamentous fungi, solidified potato-dextrose growth medium, read-out: IC50 M. gypseum
Description: as §3

[15] = system: Alternaria alternata (A. alternata) CCM F-128; experiment: as above; format: cell-based; details: Filamentous fungi, solidified potato-dextrose growth medium, read-out: IC50 A. alternata
Description: as §3

[16] = system: Rhizopus oryzae (R. oryzae) CCM F-8284; experiment: as above; format: cell-based; details: solidified potato-dextrose growth medium, read-out: IC50 R. oryzae
Description: as §3

[17] = system: human dermal fibroblasts (HDF); experiment: in vitro
Description: as §1, §2

[18] = Complex stability in biological testing medium by time-dependent 1H NMR; format: physicochemical; details: 300 K, over 96 h
Description: Nuclear magnetic resonance (NMR) data were collected on a Varian VNMRS 600 spectrometer operating at 599.87 MHz for ^1H. The concentration of all samples was approximately 3 mg/0.6 mL of 1% DMSO-d6/D2O. For comparison, the spectra of pure acids were also measured, while the pH of the solution of acids was adjusted to the same value as the solution of the complexes. The chemical shifts were referenced to the TSP (3-(trimethylsilyl)propionic-2,2,3,3-d4 acid sodium salt) peak (^1H NMR 0.00 ppm). The NMR data were recorded at 300 K, with chemical shifts δ reported in parts per million and coupling constants J in Hertz. All data were analysed using MestReNova 12.0.0 (2017) software. The stability in 1% DMSO-d6/D2O was determined for all samples. […]

[19] = system: HepG2 (human liver cancer cell line); experiment: MTT cell viability test; format: cell-based; details: after 48 h
Description: Prior to each experiment, cell viability was determined using an automated cell counter (Countess II FL, Thermo Fisher Scientific, USA). 50 μl of the HepG2 cell suspension was transferred into new tube and 12.5 μl of trypan blue was added. After one minute, 10 μl was taken from the prepared suspension to determine the number of viable cells in 1 ml. The automated cell counter determined the total number of viable cells and the percentage of viability. […] Cells (2 × 10^4/200 μl) were incubated in 96-well microtiter plates for 24 and 48 h in the presence of metal complexes, picolinic acid, and gallium(III) nitrate, at 37 °C in humified atmosphere with 5% CO2. The cells were centrifuged for 10 min at 2500 rpm and 20 °C, supernatant was removed and 180 μl of fresh serum-free medium was added. Then 10 μl of MTT solution with a concentration of 5 mg/ml was added and cells were incubated for next 2–3 h in the dark until a precipitate formed. After centrifugation and removal of supernatant 150 μl of DMSO was added to the cells to dissolve the precipitate. Absorbance at 540 nm was measured using a spectrophotometer.

[20] = target: T1, bovine serum albumin (BSA) (Bos taurus, UniProt P02769); experiment: BSA fluorescence quenching (Stern-Volmer); format: binding; details: 0.01 M PBS buffer pH 7.4, 25 °C, λex = 280 nm
T1 construct: purchased Sigma-Aldrich Chemicals
T1 sequence (P02769 25-607): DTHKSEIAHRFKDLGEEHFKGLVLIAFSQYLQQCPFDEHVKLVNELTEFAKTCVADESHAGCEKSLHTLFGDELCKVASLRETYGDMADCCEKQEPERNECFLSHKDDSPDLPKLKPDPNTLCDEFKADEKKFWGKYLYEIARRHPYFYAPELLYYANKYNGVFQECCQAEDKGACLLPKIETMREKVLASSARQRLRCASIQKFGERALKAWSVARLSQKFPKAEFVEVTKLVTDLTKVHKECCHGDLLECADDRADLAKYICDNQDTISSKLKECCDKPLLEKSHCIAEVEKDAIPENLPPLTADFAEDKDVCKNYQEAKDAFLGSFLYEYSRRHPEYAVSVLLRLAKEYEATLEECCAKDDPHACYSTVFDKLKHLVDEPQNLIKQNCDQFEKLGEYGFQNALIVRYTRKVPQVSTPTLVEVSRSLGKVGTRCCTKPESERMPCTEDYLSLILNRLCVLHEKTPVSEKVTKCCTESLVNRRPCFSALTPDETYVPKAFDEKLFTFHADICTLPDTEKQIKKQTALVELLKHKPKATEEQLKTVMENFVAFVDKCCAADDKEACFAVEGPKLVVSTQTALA
Description: Fluorescence measurements were carried out on a Varian Cary Eclipse spectrofluorometer. The quenching studies of BSA with the Ga(III) complexes were investigated to determine whether they were able to quench fluorescence of BSA. All measurements were performed at 25 °C in 0.01 M PBS buffer (pH 7.4). The fluorescence spectra were measured at an excitation wavelength of 280 nm, with a slit width of 10 nm for the excitation and emission beams, in the range of 300–450 nm and analysed according to the classical Stern–Volmer Equation: F0/F=1+KSVQ where F0 and F are the fluorescence intensities in the absence and the presence of the quencher, respectively, KSV is the Stern–Volmer constant, and [Q] is the concentration of quencher.

[21] = system: HepG2 cells; set-up: method as in PMID 16827101; details: after 6 days of treatment; read-out: antiproliferative effect IC50; cited from earlier work
[22] = Lodderomyces parapsilosis, ATCC22019
[23] = Homo sapiens, Jurkat, 72 h, read-out: Cytotoxic activity IC50 Jurkat
[24] = Homo sapiens, PaTu 8902, 72 h, read-out: Cytotoxic activity IC50 PaTu 8902
[25] = Homo sapiens, HCT-116, 72 h, read-out: Cytotoxic activity IC50 HCT116
[26] = Homo sapiens, HeLa, 72 h, read-out: Cytotoxic activity IC50 HeLa
[27] = Homo sapiens, MDA-MB-231, 72 h, read-out: Cytotoxic activity IC50 MDA-MB-231
[28] = Homo sapiens, A2058, 72 h, read-out: Cytotoxic activity IC50 A2058
[29] = Pseudomonas aeruginosa, CCM1959

SMILES: CO.[Ga+3].[O-]c1ccc(Cl)c2cccnc12.[O-]c1ccc(Cl)c2cccnc12.[O-]c1ccc(Cl)c2cccnc12 [[Ga(ClQ)3]⋅MeOH]
- activity of the Ga(III) complex relative to the activity of H-ClQ [1]: at least 2.5 times

SMILES: O=C(O)c1cc(O)cc(C(=O)O)n1 [H2Chel, chelidamic acid]
- IC50 at 72 h [2]: > 200 µM
- IC50 [3, 22]: > 500 µM
- IC50 [4, 23]: > 200 µM
- IC50 [5, 24]: > 200 µM
- IC50 [6, 25]: > 200 µM
- IC50 [7, 26]: > 200 µM
- IC50 [8, 27]: > 200 µM
- IC50 [9, 28]: > 200 µM
- IC50 ([10]; Escherichia coli, CCM3988): > 500 µM
- IC50 ([11]; Staphylococcus aureus, CCM3953): > 500 µM
- IC50 [12, 29]: > 500 µM
- effect on the growth of any model microorganism [13]: did not affect the growth
- IC50 ([14]; Nannizzia gypsea): > 500 µM
- IC50 ([15]; Alternaria alternata): > 500 µM
- IC50 ([16]; Rhizopus arrhizus): > 500 µM

SMILES: O.O=C([O-])c1ccccn1.O=C([O-])c1ccccn1.O=C([O-])c1ccccn1.[Ga+3] [GaPic, [Ga(Pic)3]·H2O]
- IC50 [17]: 231 ± 23.8 µM
- IC50 [3]: > 2000 µM
- stability in 1% DMSO-d6/D2O solution [18]: does not decompose
- IC50 [4]: 175 ± 47.7 µM
- IC50 [5]: 271 ± 34.3 µM
- IC50 [6]: 995 ± 27.5 µM
- IC50 [7]: 1530 ± 108 µM
- IC50 [8]: 152 ± 74.3 µM
- IC50 [9]: 187 ± 12.2 µM
- IC50 [10]: > 2000 µM
- IC50 [11]: 2000 µM
- inhibition of S. aureus growth ([11]; complex at 2 mM): 50%
- IC50 [12]: 50 µM
- MIC100 (MIC) P. aeruginosa ([12]; growth fully inhibited (100%)): 500 µM
- decrease in cell viability of HepG2 ([19]; 100 μM): 28%
- Stern–Volmer binding constant Ksv BSA [20]: 46700 M⁻¹
- IC50 [14]: > 2000 µM
- IC50 [15]: > 2000 µM
- IC50 [16]: > 2000 µM

SMILES: O=C([O-])c1ccccn1.[Ag+] [AgPic]
- decrease in cell viability of HepG2 ([19]; 75 μM): 45%
- decrease in cell viability of HepG2 ([19]; 100 μM): 40%

SMILES: Cc1occc(=O)c1[O-].Cc1occc(=O)c1[O-].Cc1occc(=O)c1[O-].[Ga+3] [GaM, Ga(III) maltolate]
- IC50 [21]: 25 to 35 µM

SMILES: O=C(O)c1cc(Cl)cc(C(=O)O)n1 [H2Cldpic, 4-chlorodipicolinic acid]
- IC50 at 72 h ([2]; human dermal fibroblasts (HDF)): > 200 µM
- IC50 [3, 22]: > 500 µM
- IC50 [4, 23]: > 200 µM
- IC50 [5, 24]: > 200 µM
- IC50 [6, 25]: > 200 µM
- IC50 [7, 26]: > 200 µM
- IC50 [8, 27]: > 200 µM
- IC50 [9, 28]: > 200 µM
- IC50 ([10]; Escherichia coli, CCM3988): > 500 µM
- IC50 ([11]; Staphylococcus aureus, CCM3953): > 500 µM
- IC50 [12, 29]: > 500 µM
- effect on the growth of any model microorganism [13]: did not affect the growth
- IC50 ([14]; Nannizzia gypsea): > 500 µM
- IC50 ([15]; Alternaria alternata): > 500 µM
- IC50 ([16]; Rhizopus arrhizus): > 500 µM
